In patent US5068247A, “2-aminopentanoic acid compounds and their use as immunosuppressants” (priority 1989, dated 1991):

Legend:
[1] = test system: IL-2 production in mouse allogenic MLC; assay: suppression of IL-2 production in mouse allogenic MLC; format: cell-based
Protocol: Mouse allogenic MLC was carried out as follows:
After termination of culture, the supernatant was collected and used as the supernatant of mouse allogenic MLC.
The IL-2 and IL-3 activities in the supernatant of mouse allogenic MLC were assayed in the same way as in Experiment Example 4.

[2] = test system: IL-1 response of mouse thymocytes; assay: suppression of the IL-1 response of mouse thymocytes; format: cell-based; conditions: IL-1 50 U/ml
Protocol: The thymus was resected from 6-week-old male C3H/HeN mice, and a single cell suspension was prepared using the serum-free RPMI1640 culture medium. After washing three times, the cell suspension was adjusted to a concentration of 1.5×10^7 cells/ml in the RPMI1640 culture medium supplemented with 10^-4 M 2-mercaptoethanol and 20% FCS. […] After termination of culture, 18.5 KBq/well of ^3 H-thymidine was added thereto. After culturing the suspension for further 18 hours, the cells were harvested by a cell harvester, and the radioactivity incorporated into the cells was measured by a liquid scintillation counter, which was used as an index of IL-1, IL-2 or IL-4 response. The suppression of IL-1, IL-2 or IL-4 response was evaluated by calculating the percent suppression by the following formula. [formula]

[3] = test system: allo-reactive cytotoxic T cells in spleen of EL4-immunized BALB/c mice; assay: suppression of allo-reactive cytotoxic T cells induced by immunization of mouse with allogenic cells; format: in vivo
Protocol: Male 5- to 7-week-old BALB/c mice (H-2^d) were immunized with leukemia cell EL4 derived from C57BL/6 mice (H-2^b) (10^7 cells/mouse, intraperitoneal administration), and the test substance was administered intraperitoneally 5 times at the doses of 0.001 to 3 mg/kg/day or orally at the doses of 0.3 to 10 mg/kg/day from the day of immunization. Nine to ten days after immunization, the spleen was resected from the mice to prepare a single cell suspension and the suspension was used as effector cell suspension. The ^51 Cr-release assay was carried out in the same way as in Experiment Example 3, using EL4 cells as the target cells to measure the cytotoxic activity.
The activity of allo-reactive cytotoxic T cell is indicated by lytic unit (LU) per spleen. One lytic unit (LU) is defined as the number of effector cells required to cause 25% lysis of 5×10^3 target cells. At the same time, the body weight of mouse and number of spleen cells were also determined.

U937 = assay: cytotoxicity to cultured tumor cell line U937; format: cell-based, human
Protocol: (§1) Cytotoxicity to various human tumor cell lines was examined as follows:
(§2) Cells of human cell lines, K562, MOLT4, U937 and HL60 were respectively suspended to the concentration of 4×10^5 cells/ml in the RPMI1640 culture medium supplemented with 20% FCS. Fifty μl of each suspension was added to each well of a 96-well microtest plate to which 50 μl of the test solution had been added. After culturing the suspension at 37° C. in an atmosphere of 5% carbon dioxide for 72 hours, the absorbancy at 570 nm was measured in the same way as with the colorimetry using MTT in Experiment Example 1, and the percent suppression was calculated by the following formula, which was used as an index of cytotoxicity.

[4] = cytotoxicity to cultured tumor cell line U937; format: cell-based, human; conditions: human, u937 cells; 0.1 μg/ml; read-out: Suppression
Protocol: as §1, §2

MOLT4 = assay: cytotoxicity to cultured tumor cell line MOLT4; format: cell-based, human
Protocol: as §1, §2

[5] = cytotoxicity to cultured tumor cell line MOLT4; format: cell-based, human; conditions: human, molt4 cells, read-out: Suppression
Protocol: as §1, §2

[6] = cytotoxicity to cultured tumor cell line HL60; conditions: human, hl60 cells, Suppression
Protocol: as §1, §2

HL60 = assay: cytotoxicity to cultured tumor cell line HL60
Protocol: as §1, §2

[7] = 0.001 mg/kg/day ip × 5, Table 9C
[8] = 0.001 mg/kg/day po × 5, Table 9D
[9] = 0.003 mg/kg/day ip × 5, Table 9C
[10] = 0.003 mg/kg/day po × 5, Table 9D
[11] = 0.003 mg/kg/day po × 10, Table 9E
[12] = 0.01 mg/kg/day ip × 5, Table 9C
[13] = 0.01 mg/kg/day po × 5, Table 9D
[14] = 0.01 mg/kg/day po × 10, Table 9E
[15] = 0.03 mg/kg/day ip × 5, Table 9C
[16] = 0.03 mg/kg/day po × 5, Table 9D
[17] = 0.03 mg/kg/day po × 10, Table 9E
[18] = 0.1 mg/kg/day po × 10, Table 9E
[19] = 0.3 mg/kg/day po × 10, Table 9E

CCCCCCCCCCCCC/C=C/C[C@@H](O)[C@H](O)[C@@](N)(CO)C(=O)O [Example 5]
IL-2 activity ([1]; 0.0001 μg/ml): 3.2 U/ml
IL-2 activity ([1]; 0.001 μg/ml): 2.9 U/ml
IL-2 activity ([1]; 0.01 μg/ml): < 1.0 U/ml
IL-2 activity ([1]; 0.1 μg/ml): < 1.0 U/ml
IL-2 activity ([1]; 1 μg/ml): < 1.0 U/ml
inhibition at 0.0001 µg/mL ([1]; Mus musculus, 48 h, 0.0001 μg/ml): 28.9%
inhibition at 0.001 µg/mL ([1]; Mus musculus, 48 h, 0.001 μg/ml): 35.6%
inhibition at 0.01 µg/mL ([1]; Mus musculus, 48 h, 0.01 μg/ml): 100%
inhibition at 0.1 µg/mL ([1]; Mus musculus, 48 h, 0.1 μg/ml): 100%
inhibition at 1 µg/mL ([1]; Mus musculus, 48 h, 1 μg/ml): 100%
3H-thymidine uptake ([2]; 0.0001 μg/ml): 10320 ± 1490 cpm
3H-thymidine uptake ([2]; 0.001 μg/ml): 7756 ± 686 cpm
3H-thymidine uptake ([2]; 0.01 μg/ml): 1239 ± 548 cpm
3H-thymidine uptake ([2]; 0.1 μg/ml): 595 ± 144 cpm
3H-thymidine uptake ([2]; 1 μg/ml): 419 ± 36 cpm
inhibition at 0.0001 µg/mL ([2]; Mus musculus, Thymocyte, 72 h, 0.0001 μg/ml): 11.3%
inhibition at 0.001 µg/mL ([2]; Mus musculus, Thymocyte, 72 h, 0.001 μg/ml): 33.7%
inhibition at 0.01 µg/mL ([2]; Mus musculus, Thymocyte, 72 h, 0.01 μg/ml): 90.7%
inhibition at 0.1 µg/mL ([2]; Mus musculus, Thymocyte, 72 h, 0.1 μg/ml): 96.3%
inhibition at 1 µg/mL ([2]; Mus musculus, Thymocyte, 72 h, 1 μg/ml): 97.8%
Body weight 9 days after immunization [3, 7]: 23.6 ± 1.1 g
Cytotoxic T cell activity [3, 7]: 589 ± 415 LU/spleen
Cytotoxic T cell activity, suppression [3, 7]: 49.7%
Number of spleen cells [3, 7]: 1.8 ± 0.2 × 10^8 cell
Body weight 10 days after immunization [3, 8]: 24.5 ± 1.7 g
Cytotoxic T cell activity [3, 8]: 1929 ± 630 LU/spleen
Cytotoxic T cell activity, suppression [3, 8]: 0%
Number of spleen cells [3, 8]: 1.5 ± 0.2 × 10^8
Body weight 9 days after immunization [3, 9]: 22.8 ± 1.6 g
Cytotoxic T cell activity [3, 9]: 473 ± 265 LU/spleen
Cytotoxic T cell activity, suppression [3, 9]: 59.6%
Number of spleen cells [3, 9]: 1.8 ± 0.2 × 10^8 cell
Body weight 10 days after immunization [3, 10]: 24.6 ± 1.1 g
Cytotoxic T cell activity [3, 10]: 1069 ± 400 LU/spleen
Cytotoxic T cell activity, suppression [3, 10]: 30.2%
Number of spleen cells [3, 10]: 1.6 ± 0.3 × 10^8
Body weight 10 days after immunization [3, 11]: 25.0 ± 0.7 g
Cytotoxic T cell activity [3, 11]: 1936 ± 840 LU/spleen
Cytotoxic T cell activity, suppression [3, 11]: 30.5%
Number of spleen cells [3, 11]: 1.3 ± 0.3 × 10^8
Body weight 9 days after immunization [3, 12]: 24.4 ± 1.1 g
Cytotoxic T cell activity [3, 12]: 443 ± 141 LU/spleen
Cytotoxic T cell activity, suppression [3, 12]: 62.1%
Number of spleen cells [3, 12]: 2.2 ± 0.3 × 10^8 cell
Body weight 10 days after immunization [3, 13]: 25.8 ± 1.3 g
Cytotoxic T cell activity [3, 13]: 709 ± 189 LU/spleen
Cytotoxic T cell activity, suppression [3, 13]: 53.7%
Number of spleen cells [3, 13]: 1.6 ± 0.3 × 10^8
Body weight 10 days after immunization [3, 14]: 25.2 ± 1.3 g
Cytotoxic T cell activity [3, 14]: 996 ± 279 LU/spleen
Cytotoxic T cell activity, suppression [3, 14]: 64.2%
Number of spleen cells [3, 14]: 1.4 ± 0.2 × 10^8
Body weight 9 days after immunization [3, 15]: 24.0 ± 2.2 g
Cytotoxic T cell activity [3, 15]: 352 ± 148 LU/spleen
Cytotoxic T cell activity, suppression [3, 15]: 69.9%
Number of spleen cells [3, 15]: 2.1 ± 0.5 × 10^8 cell
Body weight 10 days after immunization [3, 16]: 25.0 ± 1.2 g
Cytotoxic T cell activity [3, 16]: 684 ± 181 LU/spleen
Cytotoxic T cell activity, suppression [3, 16]: 55.3%
Number of spleen cells [3, 16]: 1.6 ± 0.3 × 10^8
Body weight 10 days after immunization [3, 17]: 24.2 ± 1.3 g
Cytotoxic T cell activity [3, 17]: 799 ± 304 LU/spleen
Cytotoxic T cell activity, suppression [3, 17]: 71.3%
Number of spleen cells [3, 17]: 1.5 ± 0.3 × 10^8
Body weight 9 days after immunization ([3]; 0.1 mg/kg/day ip × 5, Table 9C): 25.4 ± 1.9 g
Cytotoxic T cell activity ([3]; 0.1 mg/kg/day ip × 5, Table 9C): 158 ± 86 LU/spleen
Cytotoxic T cell activity, suppression ([3]; 0.1 mg/kg/day ip × 5, Table 9C): 86.5%
Number of spleen cells ([3]; 0.1 mg/kg/day ip × 5, Table 9C): 1.9 ± 0.3 × 10^8 cell
Body weight 10 days after immunization ([3]; 0.1 mg/kg/day po × 5, Table 9D): 25.2 ± 0.4 g
Cytotoxic T cell activity ([3]; 0.1 mg/kg/day po × 5, Table 9D): 638 ± 155 LU/spleen
Cytotoxic T cell activity, suppression ([3]; 0.1 mg/kg/day po × 5, Table 9D): 58.3%
Number of spleen cells ([3]; 0.1 mg/kg/day po × 5, Table 9D): 1.7 ± 0.4 × 10^8
Body weight 10 days after immunization [3, 18]: 25.0 ± 0.7 g
Cytotoxic T cell activity [3, 18]: 731 ± 318 LU/spleen
Cytotoxic T cell activity, suppression [3, 18]: 73.8%
Number of spleen cells [3, 18]: 1.4 ± 0.4 × 10^8
Body weight 9 days after immunization ([3]; 0.3 mg/kg/day ip × 5, Table 9C): 26.0 ± 1.6 g
Cytotoxic T cell activity ([3]; 0.3 mg/kg/day ip × 5, Table 9C): < 50 LU/spleen
Cytotoxic T cell activity, suppression ([3]; 0.3 mg/kg/day ip × 5, Table 9C): > 95%
Number of spleen cells ([3]; 0.3 mg/kg/day ip × 5, Table 9C): 1.9 ± 0.2 × 10^8 cell
Body weight 10 days after immunization ([3]; 0.3 mg/kg/day po × 5, Table 9D): 25.4 ± 0.5 g
Cytotoxic T cell activity ([3]; 0.3 mg/kg/day po × 5, Table 9D): 609 ± 197 LU/spleen
Cytotoxic T cell activity, suppression ([3]; 0.3 mg/kg/day po × 5, Table 9D): 60.2%
Number of spleen cells ([3]; 0.3 mg/kg/day po × 5, Table 9D): 1.6 ± 0.3 × 10^8
Body weight 10 days after immunization [3, 19]: 24.2 ± 1.3 g
Cytotoxic T cell activity [3, 19]: 651 ± 257 LU/spleen
Cytotoxic T cell activity, suppression [3, 19]: 76.6%
Number of spleen cells [3, 19]: 1.6 ± 0.3 × 10^8
Body weight 10 days after immunization ([3]; 1 mg/kg/day po × 5, Table 9D): 25.0 ± 1.4 g
Cytotoxic T cell activity ([3]; 1 mg/kg/day po × 5, Table 9D): 421 ± 12 LU/spleen
Cytotoxic T cell activity, suppression ([3]; 1 mg/kg/day po × 5, Table 9D): 72.5%
Number of spleen cells ([3]; 1 mg/kg/day po × 5, Table 9D): 1.7 ± 0.3 × 10^8
Body weight 10 days after immunization ([3]; 1 mg/kg/day po × 10, Table 9E): 22.4 ± 0.5 g
Cytotoxic T cell activity ([3]; 1 mg/kg/day po × 10, Table 9E): 269 ± 179 LU/spleen
Cytotoxic T cell activity, suppression ([3]; 1 mg/kg/day po × 10, Table 9E): 90.3%
Number of spleen cells ([3]; 1 mg/kg/day po × 10, Table 9E): 1.5 ± 0.3 × 10^8
induction of allo-reactive cytotoxic T cells (in words) ([3]; 5 times intraperitoneal or oral): strongly suppresses the induction of allo-reactive cytotoxic T cells
induction of allo-reactive cytotoxic T cells (in words), 10 oral administrations ([3]; 10 times oral, up to 0.03 mg/kg): significant suppressive activity up to the dose of 0.03 mg/kg
Absorbancy (U937; 0.1 μg/ml): 0.695 ± 0.032
Absorbancy (U937; 1 μg/ml): 0.699 ± 0.044
Absorbancy (U937; 10 μg/ml): 0.684 ± 0.038
cytotoxicity at 72 h [4]: 0%
Absorbancy (MOLT4; 0.1 μg/ml): 1.031 ± 0.035
Absorbancy (MOLT4; 1 μg/ml): 1.013 ± 0.013
Absorbancy (MOLT4; 10 μg/ml): 0.967 ± 0.006
cytotoxicity at 72 h ([5]; 0.1 μg/ml): 10.7%
cytotoxicity at 72 h ([5]; 1 μg/ml): 12.2%
cytotoxicity at 72 h ([5]; 10 μg/ml): 16.2%
cytotoxicity at 72 h ([6]; 0.1 μg/ml): 0%
cytotoxicity at 72 h ([6]; 1 μg/ml): 5%
cytotoxicity at 72 h ([6]; 10 μg/ml): 19.4%
Absorbancy (HL60; 0.1 μg/ml): 1.505 ± 0.035
Absorbancy (HL60; 1 μg/ml): 1.415 ± 0.010
Absorbancy (HL60; 10 μg/ml): 1.201 ± 0.061
